Experimental data taken from publication PMC9436819 (JACC: Basic to Translational Science, 2022).

Tested on: healthy adults
Assay: Safety echocardiograms assessed by study cardiologist (AEs of decreased LVEF)
Assay type: in vivo, human
Settings: for LVEF deemed AE (decreased ejection fraction <45%): study cardiologist
Text: Recommendations regarding dose escalation in the SAD cohorts—and in the MAD cohorts described in the next section—were made by the treating investigator (who was blinded to treatment group) and endorsed or not by the Dose Level Review Committee (DLRC), the members of which were unblinded. […] Criteria for escalation included that no more than 2 participants in a dose group developed an LVEF of <50% and that no individual developed an LVEF of <45%; escalation criteria are given in full in the Supplemental Appendix. For safety monitoring, participants in all cohorts had periodic echocardiograms, which were assessed by a cardiologist. In the SAD and MAD cohorts, echocardiograms were also reviewed by an echocardiography core laboratory for PD assessments, as described in the section on echocardiographic methods. In addition, participants in all cohorts were monitored with continuous 12-lead ECG recording using Holter monitors. For safety monitoring, a single 12-lead ECG was extracted at screening, predose, and periodically throughout follow-up and interpreted by the investigator. In the SAD, MAD, and CYP2D6-PM cohorts, cardiodynamic ECGs (triplicate 10-second, 12-lead ECG recordings) were obtained before the corresponding PK blood sample (see the Supplemental Appendix for full details on blood sampling), and ECG intervals were quantitated by qualified readers.

[1] = SAD 40 mg, one participant, 6 h after drug dose
[2] = SAD 50 mg, one participant, 4 h after drug dose
[3] = SAD 75 mg, single participant, 4 h after drug dose

How did the “Participants with echocardiogram-related AEs of decreased LVEF of <45%” value (1 each in SAD 40-mg, 50-mg, and 75-mg cohorts) turn out when CCc1nc(-c2ccc3c(c2)CC[C@H]3NC(=O)c2cnn(C)c2)no1 [Aficamten] was run?
The value was 3 participants.

And the “AEs of decreased ejection fraction of <45%” value (MAD, CYP2D6-PM, and food-effect cohorts)?
The value was “no echocardiographic AEs”.

What about the “Grade of AE of decreased ejection fraction” value (SAD 40 mg, one participant) of the same compound?
Its value is 1 (mild).

What about the “Onset of AE of decreased ejection fraction (time after drug dose)” value (SAD 40 mg, one participant) of the same compound?
Its value is 1.4 h.

And the “LVEF recorded at resolution of AE” value [1]?
Its value is 58.4%.

And the “Time from onset to resolution of AE of decreased ejection fraction” value [1]?
The value was 4.6 h.

What about the “LVEF deemed AE (decreased ejection fraction <45%)” value (SAD 40 mg, one participant) of the same compound?
Its value is 42.2%.

And the “Decrease in LVEF of 1 participant after cohort expansion” value (SAD 50 mg)?
The value was > 15%.

And the “LVEF of 1 participant after cohort expansion” value (SAD 50 mg)?
Its value is < 45%.

And the “Postdose LVEF of 1 participant (<50%)” value (SAD 50 mg, initial cohort)?
Its value is 46.2%.

And the “Grade of AE of decreased ejection fraction” value (SAD 50 mg, one participant)?
Its value is 1 (mild).

And the “Onset of AE of decreased ejection fraction (time after drug dose)” value (SAD 50 mg, one participant)?
Its value is 1.5 h.

And the “LVEF recorded at resolution of AE” value [2]?
The value was 50.2%.

And the “Time from onset to resolution of AE of decreased ejection fraction” value [2]?
Its value is 2.5 h.

What about the “LVEF deemed AE (decreased ejection fraction <45%)” value (SAD 50 mg, one participant) of the same compound?
The value was 42.1%.

And the “Postdose LVEF of the sentinel participant” value (SAD 75 mg)?
The value was < 45%.

What about the “Reduction in LVEF of the single participant” value (SAD 75 mg, […] postdose) of the same compound?
The value was 31.5%.

And the “Grade of AE of decreased ejection fraction” value (SAD 75 mg, single participant)?
Its value is 1 (mild).

And the “Onset of AE of decreased ejection fraction (time after drug dose)” value (SAD 75 mg, single participant)?
Its value is 1.5 h.

And the “LVEF recorded at resolution of AE” value [3]?
The value was 51.9%.

What about the “Time from onset to resolution of AE of decreased ejection fraction” value [3] of the same compound?
The value was 2.5 h.

What about the “LVEF deemed AE (decreased ejection fraction <45%)” value (SAD 75 mg, single participant, […] postdose) of the same compound?
Its value is 34.6%.

What about the “Time to resolution of AEs of decreased LVEF (next echocardiogram assessment)” value (SAD 40, 50, 75 mg) of the same compound?
The value was 2.5 to 4.6 h.
